In PMC8881610 (Nature Communications, 2022):

Experiments:
GLP-1R [1] = target: GLP-1R (Homo sapiens, UniProt P43220, D198A); assay: Whole-cell binding assay, competition with 125I-GLP-1(7-36)NH2; design: Flag; expressed in transfected cells; conditions: GLP-1R D198A, CHO-K1
Summary of the method: (§1)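 CHO-K1 cells transiently transfected with WT or mutant receptor constructs, washed in F-12 with 0.1% BSA or casein/33 mM HEPES and incubated 2 h at 37 °C. Bound radioactivity counted after Triton lysis; data normalized to WT and fitted to a three-parameter logistic equation.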

GLP-1R [2] = target: GLP-1R (Homo sapiens, UniProt P43220, Q210A); assay: as above; design: Flag; expressed in transfected cells; conditions: GLP-1R Q210A, CHO-K1
Summary of the method: as §1

GLP-1R [3] = target: GLP-1R (Homo sapiens, UniProt P43220, W39A); assay: as above; design: Flag; expressed in transfected cells; conditions: GLP-1R W39A; CHO-K1
Summary of the method: as §1

GLP-1R [4] = target: GLP-1R (Homo sapiens, UniProt P43220, W91A); assay: as above; design: Flag; expressed in transfected cells; conditions: GLP-1R W91A, CHO-K1
Summary of the method: as §1

[5] = clinical trial outcome; Drugs@FDA, ChemBL, ClinicalTrials.gov; cited from earlier work
[6] = read-out: binding pIC50 (converted)

GLP-1R (Homo sapiens, UniProt P43220, W91A), sequence (P43220 24-463 W91A): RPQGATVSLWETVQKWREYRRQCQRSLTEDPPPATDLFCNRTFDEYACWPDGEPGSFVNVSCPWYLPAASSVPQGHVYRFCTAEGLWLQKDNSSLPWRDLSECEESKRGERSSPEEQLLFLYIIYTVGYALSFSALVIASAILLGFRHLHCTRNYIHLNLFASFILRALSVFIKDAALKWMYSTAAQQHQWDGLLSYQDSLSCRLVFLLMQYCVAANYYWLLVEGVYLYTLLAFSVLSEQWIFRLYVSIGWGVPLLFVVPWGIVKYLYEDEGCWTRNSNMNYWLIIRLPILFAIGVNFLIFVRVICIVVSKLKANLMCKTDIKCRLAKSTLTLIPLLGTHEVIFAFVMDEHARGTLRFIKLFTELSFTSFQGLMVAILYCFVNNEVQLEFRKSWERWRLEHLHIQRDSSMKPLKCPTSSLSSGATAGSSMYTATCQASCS
GLP-1R (Homo sapiens, UniProt P43220, Q210A), sequence (P43220 24-463 Q210A): as the sequence (P43220 24-463 W91A) above, with A68W, Q187A counted along it
GLP-1R (Homo sapiens, UniProt P43220, D198A), sequence (P43220 24-463 D198A): as the sequence (P43220 24-463 W91A) above, with A68W, D175A counted along it
GLP-1R (Homo sapiens, UniProt P43220, W39A), sequence (P43220 24-463 W39A): as the sequence (P43220 24-463 W91A) above, with W16A, A68W counted along it

| SMILES | binding Span (GLP-1R [1]) [% WT] | IC50 (GLP-1R [1]; [6]) [nM] | binding Span (GLP-1R [2]) [% WT] | IC50 (GLP-1R [2]; [6]) [nM] | binding Span (GLP-1R [3]) | binding pIC50 (GLP-1R [3]) | binding Span (GLP-1R [4]) [% WT] | IC50 (GLP-1R [4]; [6]) [nM] | Body weight [5] | Fasting plasma glucose [5] |
| --- | --- | --- | --- | --- | --- | --- | --- | --- | --- | --- |
| CCCCCCCCCCCCCCCC(=O)N[C@@H](CCC(=O)NCCCC[C@H](NC(=O)[C@H](CC(=O)O)NC(=O)[C@H](CO)NC(=O)[C@@H](NC(=O)[C@H](Cc1ccccc1)NC(=O)[C@@H](NC(=O)CNC(=O)[C@H](CCC(N)=O)NC(=O)C(C)(C)NC(=O)[C@@H](N)Cc1c[nH]cn1)[C@@H](C)O)[C@@H](C)O)C(=O)N[C@@H](CO)C(=O)N[C@@H](CCCCN)C(=O)N[C@@H](Cc1ccc(O)cc1)C(=O)N[C@@H](CC(C)C)C(=O)N[C@@H](CC(=O)O)C(=O)N[C@@H](CCC(=O)O)C(=O)N[C@@H](CCCNC(=N)N)C(=O)N[C@@H](C)C(=O)N[C@@H](C)C(=O)N[C@@H](CCC(N)=O)C(=O)N[C@@H](CC(=O)O)C(=O)N[C@@H](Cc1ccccc1)C(=O)N[C@H](C(=O)N[C@@H](CCC(N)=O)C(=O)N[C@@H](Cc1c[nH]c2ccccc12)C(=O)N[C@@H](CC(C)C)C(=O)N[C@@H](CC(C)C)C(=O)N[C@@H](CC(=O)O)C(=O)NCC(=O)NCC(=O)N1CCC[C@H]1C(=O)N[C@@H](CO)C(=O)N[C@@H](CO)C(=O)NCC(=O)N[C@@H](C)C(=O)N1CCC[C@H]1C(=O)N1CCC[C@H]1C(=O)N1CCC[C@H]1C(=O)N[C@@H](CO)C(N)=O)C(C)C)C(=O)O [Peptide 20] | 1.88 ± 1.66 | 52.5 | 100.10 ± 5.13 | 4.07 | N.B. | N.B. | 6.51 ± 2.59 | 2.04 | – | – |
| CC[C@H](C)[C@H](NC(=O)[C@H](CC(C)C)NC(=O)[C@H](Cc1c[nH]c2ccccc12)NC(=O)[C@H](CCC(N)=O)NC(=O)[C@@H](NC(=O)[C@H](Cc1ccccc1)NC(=O)[C@H](C)NC(=O)[C@H](CCCCNC(=O)COCCOCCNC(=O)COCCOCCNC(=O)CC[C@H](NC(=O)CCCCCCCCCCCCCCCCCCC(=O)O)C(=O)O)NC(=O)[C@H](CCC(N)=O)NC(=O)[C@H](C)NC(=O)[C@@H](NC(=O)[C@H](CCCCN)NC(=O)[C@H](CC(=O)O)NC(=O)[C@H](CC(C)C)NC(=O)C(C)(C)NC(=O)[C@@H](NC(=O)[C@H](CO)NC(=O)[C@H](Cc1ccc(O)cc1)NC(=O)[C@H](CC(=O)O)NC(=O)[C@H](CO)NC(=O)[C@@H](NC(=O)[C@H](Cc1ccccc1)NC(=O)[C@@H](NC(=O)CNC(=O)[C@H](CCC(=O)O)NC(=O)C(C)(C)NC(=O)[C@@H](N)Cc1ccc(O)cc1)[C@@H](C)O)[C@@H](C)O)[C@@H](C)CC)[C@@H](C)CC)C(C)C)C(=O)N[C@@H](C)C(=O)NCC(=O)NCC(=O)N1CCC[C@H]1C(=O)N[C@@H](CO)C(=O)N[C@@H](CO)C(=O)NCC(=O)N[C@@H](C)C(=O)N1CCC[C@H]1C(=O)N1CCC[C@H]1C(=O)N1CCC[C@H]1C(=O)N[C@@H](CO)C(N)=O [Tirzepatide] | – | – | – | – | – | – | – | – | -5.30 ~ -5.70 kg or % | -60.70 ~ -74.20 mg/dL |
